This data set is described as follows: in vitro. The note with it: human, liver microsomes.

Regarding `Cc1[nH]c2ccc(Cl)cc2c1CCN1CCCC(c2ccnc(NC3CC3)n2)C1` (centres undefined), the CLint scaled – broadly, the capacity of the preparation to metabolise the compound, expressed as a volume cleared per time – (CL) was 135 mL/min/kg.

Where the note is “CL”, `Fc1cccc2c(CCN3CCCC(c4ccnc(NC5CC5)n4)C3)c[nH]c12` (centres undefined) had a CLint scaled of 28 mL/min/kg.

With `O=C1CC2(CCCC2)CC(=O)N1CCCCN1CCN(c2ncccn2)CC1` [BUSPIRONE], the CLint scaled (CL) is 148 mL/min/kg.

Turning to `c1cc(C2CCCN(CCc3cscn3)C2)nc(NC2CC2)n1` (centres undefined), the CLint scaled was found to be 15 mL/min/kg.

Source of the values: ChEMBL document CHEMBL1136854, “Synthesis and pharmacological evaluation of aminopyrimidine series of 5-HT1A partial agonists” (Bioorg Med Chem Lett, 2009).
